Data from ChEMBL document CHEMBL3137667, “[Drug-induced liver injury; fourteenth updated edition of the bibliographic database of liver injuries and related drugs]” (Gastroenterol Clin Biol, 2004).

Assays:
[1] = human, serum, 4383 h
[2] = human, serum
[3] = Highest frequency of acute liver toxicity observed during clinical trials, expressed as a percentage. [column '% AIGUE' in source]; conditions: human
[4] = human
[5] = human; remark: listed apart in the source
[6] = human; remark: listed apart in the source
[7] = human, serum; remark: listed apart in the source
[8] = human; remark: listed apart in the source
[9] = human; remark: listed apart in the source
[10] = Presence of at least one case with successful reintroduction. [column 'REINT' in source]; conditions: human
[11] = Times to onset, minimal and maximal, observed in the indexed observations. [column 'DELAI' in source]; conditions: human
[12] = Highest frequency of moderate liver toxicity observed during clinical trials, expressed as a percentage. [column '% BIOL' in source]; conditions: human
[13] = human; remark: listed apart in the source
[14] = human; remark: listed apart in the source
[15] = human; remark: listed apart in the source
[16] = human; remark: listed apart in the source
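Throughout, for Hepatotoxicity (association with vascular disease): count of indexed literature references reporting vascular liver injury in humans, e.g. peliosis hepatitis, hepatic veno-occlusive disease or Budd-Chiari syndrome.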
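Throughout, for Hepatotoxicity (benign tumour): value is a count of indexed literature references citing a benign tumour confirmed by histopathology.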
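Throughout, for Hepatotoxicity (choleostasis): human cholestatic liver injury, shown by histopathology or by peak ALT or AST elevation over alkaline phosphatase ratio below 2, value counts indexed literature reports.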
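Throughout, for Hepatotoxicity (chronic liver disease): chronic liver injury confirmed by histopathology or persistently raised serum aminotransferase activity beyond 6 months, value given as the count of indexed literature references.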
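Throughout, for Hepatotoxicity (cirrhosis): value is a count of indexed literature references reporting cirrhosis confirmed by histopathology.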
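Throughout, for Hepatotoxicity (cytolytic): human cytolytic liver injury, shown by histopathology or by a ratio above 5 of peak ALT or AST elevation to alkaline phosphatase elevation, value counts indexed references.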
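Throughout, for Hepatotoxicity (granulomatous hepatitis): value is a count of indexed literature references reporting granulomatous liver disease confirmed by histopathology.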
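Throughout, for Hepatotoxicity (malignant tumour): malignant tumour confirmed by histopathology, value gives the count of indexed literature references reporting it.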
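Throughout, for Hepatotoxicity (severe hepatitis): human clinical data: severe hepatitis, meaning potentially life-threatening liver failure or clinically observed cases, the value counts how many indexed literature references report it.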
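Throughout, for Hepatotoxicity (steatosis): steatosis confirmed by histopathology, value is the count of indexed references.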

| SMILES | Hepatotoxicity (chronic liver disease) [1] | Hepatotoxicity (moderate) [2] | Hepatotoxicity (cirrhosis) [5] | Hepatotoxicity (association with vascular disease) [6] | Hepatotoxicity (acute) [7] | Hepatotoxicity (successful reintroduction) [10] | Hepatotoxicity (time to onset) [11] | Hepatotoxicity (steatosis) [13] | Hepatotoxicity (benign tumour) [14] | Hepatotoxicity (malignant tumour) [15] | Hepatotoxicity (acute) [3] | Hepatotoxicity (cytolytic) [4] | Hepatotoxicity (granulomatous hepatitis) [8] | Hepatotoxicity (choleostasis) [9] | Hepatotoxicity (moderate) [12] | Hepatotoxicity (severe hepatitis) [16] | also measured |
| --- | --- | --- | --- | --- | --- | --- | --- | --- | --- | --- | --- | --- | --- | --- | --- | --- | --- |
| COc1ccc2c3c1O[C@H]1[C@@H](O)C=C[C@H]4[C@@H](C2)N(C)CC[C@@]341 [CODEINE] | 0 | 2 | 0 | 0 | 3 | yes | < 1 hour - 1.5 hours | 0 | 0 | 0 | – | – | – | – | – | – | Hepatotoxicity (acute) ([3]; Liver): 0%; Hepatotoxicity (cytolytic) ([4]; Liver): 2; Hepatotoxicity (granulomatous hepatitis) ([8]; Liver): 1; Hepatotoxicity (choleostasis) ([9]; Liver): 0; Hepatotoxicity (moderate) ([12]; Liver): 0%; Hepatotoxicity (severe hepatitis) ([16]; Liver): 0 |
| NS(=O)(=O)c1cc2c(cc1Cl)NCNS2(=O)=O [HYDROCHLOROTHIAZIDE] | 0 | 2 | 0 | 0 | 4 | yes | 17 days - 14 months | 0 | 0 | 0 | 0% | 3 | 0 | 1 | 2.4% | 1 | – |
| COc1c2occc2c(OC)c2c(=O)cc(C)oc12 [KHELLIN] | 0 | 1 | 0 | 0 | 1 | yes | 5 weeks | 0 | 0 | 0 | 0% | 1 | 0 | 0 | 0% | 0 | – |
| CCCCC(CC)COC(=O)CC(C(=O)OCC(CC)CCCC)S(=O)(=O)O (stereo not given) [DOCUSATE] | 1 | 1 | 0 | 0 | 0 | yes | 2 days - 1 year | 0 | 0 | 0 | 0% | 0 | 0 | 0 | 0% | 0 | – |
| O=C(CCCN1CCC(O)(c2ccc(Br)cc2)CC1)c1ccc(F)cc1 [BROMPERIDOL] | 0 | 0 | 0 | 0 | 1 | yes | 2 weeks - 6 weeks | 0 | 0 | 0 | 0% | 0 | 0 | 0 | 0% | 0 | – |
